Measurements as given in patent publication US11445724B2, “Insecticidal compounds” (SYNGENTA PARTICIPATIONS AG, priority 2013, dated 2022).

What was measured:
Format in all cases: in vivo
[1] = system: Diabrotica balteata (Corn root worm); test: Diabrotica balteata (Corn root worm) larval mortality, artificial diet in 24-well MTP; conditions: 120 h, application rate 200 ppm (concentration in well 18 ppm), L2 larvae, larval mortality after 5 days
[2] = system: Tetranychus urticae (Two-spotted spider mite); test: Tetranychus urticae (Two-spotted spider mite) mortality, sprayed bean leaf discs; conditions: foliar, 192 h, 200 ppm spray on bean leaf discs, mixed ages, egg, larval and adult mortality after 8 days
[3] = system: Thrips tabaci (Onion thrips); test: Thrips tabaci (Onion thrips) mortality, sprayed sunflower leaf discs; conditions: foliar, 168 h, 200 ppm spray on sunflower leaf discs, mixed ages, mortality after 7 days
[4] = system: Myzus persicae (Green peach aphid); test: Myzus persicae (Green peach aphid) mortality, test compounds mixed with Sucrose solution under Parafilm; conditions: 120 h, 12.5 ppm in Sucrose solution, infested pea seedlings on Parafilm, mortality 5 days after infestation
[5] = system: Spodoptera littoralis (Egyptian cotton leafworm); test: Spodoptera littoralis (Egyptian cotton leafworm) mortality, sprayed cotton leaf discs; conditions: foliar, 72 h, 200 ppm spray on cotton leaf discs, L1 larvae, mortality 3 DAT
[6] = system: Myzus persicae (Green peach aphid); test: Myzus persicae (Green peach aphid) mortality, sprayed sunflower leaf discs; conditions: foliar, 144 h, 200 ppm spray on sunflower leaf discs, mixed ages, mortality 6 DAT
[7] = system: Plutella xylostella (Diamond back moth); test: Plutella xylostella (Diamond back moth) larval mortality, artificial diet in 24-well MTP; conditions: 144 h, application rate 200 ppm (concentration in well 18 ppm), L2 larvae, larval mortality after 6 days

O=C(Nc1cccc(C(=O)Nc2c(Br)cc(C(F)(C(F)(F)F)C(F)(F)F)cc2OC(F)F)c1F)c1ccncc1 [Compound 1]
≥ 80%: pest or weed control at 200 ppm [1] | pest or weed control at 200 ppm [2] | pest or weed control at 200 ppm [3] | pest or weed control at 12.5 ppm [4] | pest or weed control at 200 ppm [5] | pest or weed control at 200 ppm [6] | pest or weed control at 200 ppm [7]

CCN(C(=O)c1ccncc1)c1cccc(C(=O)Nc2c(Br)cc(C(F)(C(F)(F)F)C(F)(F)F)cc2OC(F)F)c1F [Compound 2, N-[3-[[2-bromo-6-(difluoromethoxy)-4-[1,2,2,2-tetrafluoro-1-(trifluoromethyl)ethyl]phenyl]carbamoyl]-2-fluoro-phenyl]-N-ethyl-pyridine-4-carboxamide]
≥ 80%: pest or weed control at 200 ppm [1] | pest or weed control at 200 ppm [2] | pest or weed control at 200 ppm [3] | pest or weed control at 12.5 ppm [4] | pest or weed control at 200 ppm [5] | pest or weed control at 200 ppm [6] | pest or weed control at 200 ppm [7]

COc1c(NC(=O)c2ccccc2C)cccc1C(=O)Nc1c(Br)cc(C(F)(C(F)(F)F)C(F)(F)F)cc1OC(F)F [Compound 35]
≥ 80%: pest or weed control at 200 ppm [1] | pest or weed control at 200 ppm [2] | pest or weed control at 200 ppm [3] | pest or weed control at 200 ppm [5] | pest or weed control at 200 ppm [6] | pest or weed control at 200 ppm [7]

COc1c(NC(=O)c2ccccc2Cl)cccc1C(=O)Nc1c(Br)cc(C(F)(C(F)(F)F)C(F)(F)F)cc1OC(F)F [Compound 37]
≥ 80%: pest or weed control at 200 ppm [1] | pest or weed control at 200 ppm [2] | pest or weed control at 200 ppm [3] | pest or weed control at 200 ppm [5] | pest or weed control at 200 ppm [6] | pest or weed control at 200 ppm [7]

COc1c(NC(=O)c2ccc(F)cc2C)cccc1C(=O)Nc1c(Br)cc(C(F)(C(F)(F)F)C(F)(F)F)cc1OC(F)F [Compound 43]
≥ 80%: pest or weed control at 200 ppm [1] | pest or weed control at 200 ppm [2] | pest or weed control at 200 ppm [3] | pest or weed control at 200 ppm [5] | pest or weed control at 200 ppm [6] | pest or weed control at 200 ppm [7]

Cc1ccccc1C(=O)Nc1cccc(C(=O)Nc2c(Cl)cc(C(F)(C(F)(F)F)C(F)(F)F)cc2OC(F)F)c1F [Compound 46]
≥ 80%: pest or weed control at 200 ppm [1] | pest or weed control at 200 ppm [2] | pest or weed control at 200 ppm [3] | pest or weed control at 200 ppm [5] | pest or weed control at 200 ppm [7]

O=C(Nc1cccc(C(=O)Nc2c(Cl)cc(C(F)(C(F)(F)F)C(F)(F)F)cc2OC(F)F)c1F)c1ccccc1Cl [Compound 48]
≥ 80%: pest or weed control at 200 ppm [1] | pest or weed control at 200 ppm [2] | pest or weed control at 200 ppm [3] | pest or weed control at 200 ppm [5] | pest or weed control at 200 ppm [6] | pest or weed control at 200 ppm [7]

O=C(Nc1cccc(C(=O)Nc2c(Cl)cc(C(F)(C(F)(F)F)C(F)(F)F)cc2OC(F)F)c1F)c1ccc(F)c(C(F)(F)F)c1 [Compound 62]
≥ 80%: pest or weed control at 200 ppm [1] | pest or weed control at 200 ppm [2] | pest or weed control at 12.5 ppm [4] | pest or weed control at 200 ppm [5] | pest or weed control at 200 ppm [7]

COc1c(NC(=O)c2ccc(F)cc2F)cccc1C(=O)Nc1c(Br)cc(C(F)(C(F)(F)F)C(F)(F)F)cc1OC(F)F [Compound 71]
≥ 80%: pest or weed control at 200 ppm [1] | pest or weed control at 200 ppm [2] | pest or weed control at 200 ppm [3] | pest or weed control at 200 ppm [5] | pest or weed control at 200 ppm [6] | pest or weed control at 200 ppm [7]

O=C(Nc1cccc(C(=O)Nc2c(Cl)cc(C(F)(C(F)(F)F)C(F)(F)F)cc2OC(F)F)c1F)c1ccc(F)cc1Cl [Compound 74]
≥ 80%: pest or weed control at 200 ppm [1] | pest or weed control at 200 ppm [2] | pest or weed control at 200 ppm [3] | pest or weed control at 12.5 ppm [4] | pest or weed control at 200 ppm [5] | pest or weed control at 200 ppm [7]

COc1c(NC(=O)c2ccccc2C)cccc1C(=O)Nc1c(Cl)cc(C(F)(C(F)(F)F)C(F)(F)F)cc1OC(F)F [Compound 77]
≥ 80%: pest or weed control at 200 ppm [1] | pest or weed control at 200 ppm [2] | pest or weed control at 200 ppm [3] | pest or weed control at 200 ppm [5] | pest or weed control at 200 ppm [7]

COc1c(NC(=O)c2ccccc2Cl)cccc1C(=O)Nc1c(Cl)cc(C(F)(C(F)(F)F)C(F)(F)F)cc1OC(F)F [Compound 79]
≥ 80%: pest or weed control at 200 ppm [1] | pest or weed control at 200 ppm [2] | pest or weed control at 200 ppm [3] | pest or weed control at 200 ppm [5] | pest or weed control at 200 ppm [6] | pest or weed control at 200 ppm [7]

COc1c(NC(=O)c2ccc(OC(F)(F)F)cc2)cccc1C(=O)Nc1c(Cl)cc(C(F)(C(F)(F)F)C(F)(F)F)cc1OC(F)F [Compound 87]
≥ 80%: pest or weed control at 200 ppm [1] | pest or weed control at 200 ppm [2] | pest or weed control at 200 ppm [3] | pest or weed control at 200 ppm [5] | pest or weed control at 200 ppm [7]

COc1c(NC(=O)c2ccccc2)cccc1C(=O)Nc1c(Cl)cc(C(F)(C(F)(F)F)C(F)(F)F)cc1OC(F)F [Compound 92]
≥ 80%: pest or weed control at 200 ppm [1] | pest or weed control at 200 ppm [2] | pest or weed control at 200 ppm [3] | pest or weed control at 200 ppm [5] | pest or weed control at 200 ppm [6] | pest or weed control at 200 ppm [7]

COc1c(NC(=O)c2ccccc2C(F)(F)F)cccc1C(=O)Nc1c(Cl)cc(C(F)(C(F)(F)F)C(F)(F)F)cc1OC(F)F [Compound 94]
≥ 80%: pest or weed control at 200 ppm [1] | pest or weed control at 200 ppm [2] | pest or weed control at 200 ppm [3] | pest or weed control at 200 ppm [5] | pest or weed control at 200 ppm [6] | pest or weed control at 200 ppm [7]

COc1c(NC(=O)c2ccc(F)cc2Cl)cccc1C(=O)Nc1c(Cl)cc(C(F)(C(F)(F)F)C(F)(F)F)cc1OC(F)F [Compound 95]
≥ 80%: pest or weed control at 200 ppm [1] | pest or weed control at 200 ppm [2] | pest or weed control at 200 ppm [3] | pest or weed control at 200 ppm [5] | pest or weed control at 200 ppm [6] | pest or weed control at 200 ppm [7]

COc1c(NC(=O)c2ccc(F)cc2F)cccc1C(=O)Nc1c(Cl)cc(C(F)(C(F)(F)F)C(F)(F)F)cc1OC(F)F [Compound 97]
≥ 80%: pest or weed control at 200 ppm [2] | pest or weed control at 200 ppm [3] | pest or weed control at 200 ppm [5] | pest or weed control at 200 ppm [6] | pest or weed control at 200 ppm [7]

CCN(C(=O)c1ccccc1Cl)c1cccc(C(=O)Nc2c(Cl)cc(C(F)(C(F)(F)F)C(F)(F)F)cc2OC(F)F)c1F [Compound 112]
≥ 80%: pest or weed control at 200 ppm [1] | pest or weed control at 200 ppm [2] | pest or weed control at 200 ppm [3] | pest or weed control at 200 ppm [5] | pest or weed control at 200 ppm [6] | pest or weed control at 200 ppm [7]

CCN(C(=O)c1ccccc1F)c1cccc(C(=O)Nc2c(Br)cc(C(F)(C(F)(F)F)C(F)(F)F)cc2OC(F)F)c1F [Compound 125]
≥ 80%: pest or weed control at 200 ppm [1] | pest or weed control at 200 ppm [3] | pest or weed control at 12.5 ppm [4] | pest or weed control at 200 ppm [5] | pest or weed control at 200 ppm [6] | pest or weed control at 200 ppm [7]

CCN(C(=O)c1ccccc1F)c1cccc(C(=O)Nc2c(Br)cc(C(F)(C(F)(F)F)C(F)(F)F)cc2OC(F)F)c1OC [Compound 129]
≥ 80%: pest or weed control at 200 ppm [1] | pest or weed control at 200 ppm [2] | pest or weed control at 200 ppm [3] | pest or weed control at 200 ppm [5] | pest or weed control at 200 ppm [7]

CCN(C(=O)c1ccc(F)cc1C)c1cccc(C(=O)Nc2c(Br)cc(C(F)(C(F)(F)F)C(F)(F)F)cc2OC(F)F)c1OC [Compound 133]
≥ 80%: pest or weed control at 200 ppm [1] | pest or weed control at 200 ppm [2] | pest or weed control at 200 ppm [3] | pest or weed control at 200 ppm [5] | pest or weed control at 200 ppm [7]

CCN(C(=O)c1ccccc1)c1cccc(C(=O)Nc2c(Br)cc(C(F)(C(F)(F)F)C(F)(F)F)cc2OC(F)F)c1OC [Compound 138]
≥ 80%: pest or weed control at 200 ppm [1] | pest or weed control at 200 ppm [3] | pest or weed control at 12.5 ppm [4] | pest or weed control at 200 ppm [5] | pest or weed control at 200 ppm [6] | pest or weed control at 200 ppm [7]

CCN(C(=O)c1ccc([N+](=O)[O-])cc1Cl)c1cccc(C(=O)Nc2c(Cl)cc(C(F)(C(F)(F)F)C(F)(F)F)cc2OC(F)F)c1OC [Compound 152]
≥ 80%: pest or weed control at 200 ppm [1] | pest or weed control at 200 ppm [2] | pest or weed control at 200 ppm [3] | pest or weed control at 12.5 ppm [4] | pest or weed control at 200 ppm [5] | pest or weed control at 200 ppm [7]

CCN(C(=O)c1ccccc1OC)c1cccc(C(=O)Nc2c(Cl)cc(C(F)(C(F)(F)F)C(F)(F)F)cc2OC(F)F)c1OC [Compound 154]
≥ 80%: pest or weed control at 200 ppm [1] | pest or weed control at 200 ppm [2] | pest or weed control at 200 ppm [3] | pest or weed control at 200 ppm [5] | pest or weed control at 200 ppm [7]

CCN(C(=O)c1ccccc1)c1cccc(C(=O)Nc2c(Cl)cc(C(F)(C(F)(F)F)C(F)(F)F)cc2OC(F)F)c1OC [Compound 155]
≥ 80%: pest or weed control at 200 ppm [1] | pest or weed control at 200 ppm [3] | pest or weed control at 12.5 ppm [4] | pest or weed control at 200 ppm [5] | pest or weed control at 200 ppm [6] | pest or weed control at 200 ppm [7]

CCN(C(=O)c1cccc(F)c1F)c1cccc(C(=O)Nc2c(Cl)cc(C(F)(C(F)(F)F)C(F)(F)F)cc2OC(F)F)c1OC [Compound 159]
≥ 80%: pest or weed control at 200 ppm [1] | pest or weed control at 200 ppm [3] | pest or weed control at 12.5 ppm [4] | pest or weed control at 200 ppm [5] | pest or weed control at 200 ppm [6] | pest or weed control at 200 ppm [7]
